≈ marks a conversion by molar mass, not a printed value.
How the values were obtained:
Plasmodium falciparum [1] = experiment: Antimalarial activity against chloroquine-sensitive Plasmodium falciparum D6 as [3H]hypoxanthine uptake; type: functional, organism-based
Plasmodium falciparum [2] = experiment: Antimalarial activity against chloroquine-resistant Plasmodium falciparum W2 as [3H]hypoxanthine uptake; type: functional, organism-based

Compound	IC50 (Plasmodium falciparum [1]) [µg/mL]	IC50 (Plasmodium falciparum [2]) [µg/mL]
COc1ccc2c(c1O)[C@H](Cc1ccc(O)cc1)NCC2	4.1 (≈ 14.4 µM)	3.1 (≈ 10.9 µM)
COc1ccc2c(c1O)[C@H](Cc1ccc(O)cc1)N(C)CC2	4.09 (≈ 13.7 µM)	4.48 (≈ 15 µM)
COc1cc2c(cc1OC)-c1c(OC)c(OC)c(OC)c3c1[C@H](C2)NCC3	1.51 (≈ 4.07 µM)	1.75 (≈ 4.71 µM)
COc1cc2c(cc1O)C[C@H]1c3c(cc(OC)c(OC)c3-2)CCN1C	7.15 (≈ 20.9 µM)	2.7 (≈ 7.91 µM)
COc1ccc2c(c1O)-c1c(OC)c(OC)cc3c1[C@H](C2)NCC3	1.99 (≈ 6.08 µM)	1.9 (≈ 5.8 µM)
COc1cc2c(cc1O)[C@H](Cc1ccc(O)cc1)N(C)CC2	2.73 (≈ 9.12 µM)	3.81 (≈ 12.7 µM)
COc1cc2c(cc1OC)[C@]13CCN(C)[C@@H](C2)[C@@H]1CC(=O)C(OC)C3 (some centres not stated)	7.1 (≈ 20.6 µM)	9.02 (≈ 26.1 µM)
COc1ccc(C[C@H]2c3cc(O)c(OC)cc3CCN2C)cc1O [(S)-RETICULINE]	5.8 (≈ 17.6 µM)	3.65 (≈ 11.1 µM)
C[C@@H]1CC[C@H]2[C@@H](C)C(=O)O[C@@H]3O[C@@]4(C)CC[C@@H]1[C@]32OO4 [ARTEMISININ]	0.0041 (≈ 0.0145 µM)	0.0022 (≈ 0.00779 µM)
COc1cc2c(cc1O)C[C@H]1c3c(cc(O)c(OC)c3-2)CCN1C [BOLDINE]	2.13 (≈ 6.51 µM)	1.47 (≈ 4.49 µM)
COc1cc2c(cc1O)[C@@H](Cc1ccc(Oc3cc(C[C@H]4NCCc5cc(OC)c(O)cc54)ccc3OC)cc1)NCC2 [COSTARICINE]	0.05 (≈ 0.0858 µM)	0.294 (≈ 0.505 µM)
COc1cc2c(cc1O)C[C@H]1c3c(cc(OC)c(O)c3-2)CCN1C [ISOBOLDINE]	0.668 (≈ 2.04 µM)	0.904 (≈ 2.76 µM)
COc1ccc2c(c1O)-c1c(OC)c(OC)cc3c1[C@H](C2)N(C)CC3 [ISOCORYDINE]	1.9 (≈ 5.57 µM)	2.83 (≈ 8.29 µM)
COc1cc2c(cc1O)C[C@@H]1NCCc3cc(OC)c(OC)c-2c31 [LAUROTETANINE]	3.9 (≈ 11.9 µM)	2.53 (≈ 7.73 µM)
COc1cc2c(cc1O)C[C@@H]1NCCc3cc(O)c(OC)c-2c31 [NORBOLDINE]	1.24 (≈ 3.96 µM)	1.68 (≈ 5.36 µM)
C=C[C@H]1CN2CC[C@H]1C[C@H]2[C@H](O)c1ccnc2ccc(OC)cc12 [QUININE]	0.0157 (≈ 0.0484 µM)	0.0388 (≈ 0.12 µM)

From ChEMBL document CHEMBL1158239, “Costaricine, a new antiplasmodial bisbenzylisoquinoline alkaloid from Nectandra salicifolia trunk bark” (J Nat Prod, 1996)
